Measurements reported in the METLIN SMRT retention time set (Domingo-Almenara et al. 2019).

Experiment: gradient 5% acetonitrile 3 min, to 50% in 2 min, to 85% in 15 min, held 3 min, 100 µL/min
Conditions: column: Zorbax Extend-C18 2.1 x 50 mm; eluents: water / acetonitrile, 0.1% formic acid
Outline: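 Each retention time is based on an adduct peak selected computationally and verified by manual inspection. Measurements used HPLC–quadrupole time-of-flight mass spectrometry in positive and negative ionization mode on mixtures of ~100 pure standards. Chromatography ran on a Zorbax Extend-C18 column (2.1 × 50 mm, 1.8 μm) at 100 μL/min with water and acetonitrile, each containing 0.1% formic acid, and dead and dwell volumes of 40 μL and 900 μL.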

Structure (SMILES)	RP-LC retention time
CC1=NN(c2ccccc2)C(=O)C1C(=O)c1ccccc1Br (stereo unspecified)	1040 s
CN(C)[C@@H]1CN(C(=O)c2cc3cc(Cl)ccc3[nH]2)C[C@H]1CO	622 s
CCN1CCCC1CN(CC(=O)N1CCNCC1)S(=O)(=O)c1cc(C)c(C)cc1C (stereo unspecified)	588 s
Cc1cc(C)cc(N2CCC(NC(=O)c3ccc(C)s3)C2=O)c1 (stereo unspecified)	904 s
CCC(=O)N1CCC(C(=O)Nc2ccc(S(=O)(=O)N3CCCC3)cc2)CC1	697 s
Cc1ccc(OCC(=O)N(Cc2ccc(Br)o2)C2CCS(=O)(=O)C2)cc1C (stereo unspecified)	996 s
COc1ccc(C)cc1NC(=O)N1CCC2(CC1)NC(=O)c1cccc(Cl)c1N2	819 s
CCc1noc(NC(C)=O)c1-c1ccc(C)c(S(=O)(=O)N2CCCC2)c1	801 s
CC(=O)Nc1ccc(C(=O)N(C2CC2)C2(C(=O)NCc3ccccc3)CCN(C(C)=O)CC2)cc1	692 s
Fc1cccc(-c2noc(Cc3nnc(-c4ccc(Cl)cc4)o3)n2)c1	995 s
O=C(Nc1ccc(F)c(Cl)c1)C1CCN(C(=O)C2Sc3ccccc3NC2=O)CC1 (stereo unspecified)	826 s
O=C(NCc1cccs1)c1nnc(-c2ccc(S(=O)(=O)N3CCOCC3)cc2)o1	804 s
Fc1ccccc1CNc1nnc(-c2nc(C3CC3)no2)c2ccccc12	952 s
CCN1CCN(C(=O)C2CCN(C3=NS(=O)(=O)C(c4ccc(C)c(C)c4)=C3C)CC2)CC1	598 s
COc1ccc(Cn2c(=O)n(C(C)C)c(=O)c3oc4ccccc4c32)cc1	976 s
COc1ccccc1C(=O)NCCc1c[nH]c2ccc(F)cc12	842 s
CC1=C(c2ccc(C(C)C)cc2)S(=O)(=O)N=C1N1CCC(C(=O)N2CCOCC2)CC1	779 s
O=C1CC(NC(=O)COc2ccc(F)cc2)CN1 (stereo unspecified)	586 s

Structure (SMILES)	RP-LC retention time
O=C(c1nnc(-c2ccc(S(=O)(=O)N3CCCCC3)cc2)o1)N1CCc2ccccc2C1	1080 s
CNC(=O)Nc1ccc2nc3n(c(=O)c2c1)CCCC3	559 s
O=C(Cc1ccccc1Cl)N1CCc2cc(-c3ccno3)ccc21	1020 s
COc1ccc(-c2nnc(-c3cccc(S(=O)(=O)N4CCC(C)CC4)c3)o2)cc1OC	1050 s
Cc1ccc(NC(=O)Cn2c(=O)n(-c3ccc(F)cc3)c3ncccc32)cc1	880 s
Cc1cccc(NC(=O)Nc2c(-c3cccc(C)c3)nc3ccccn23)c1	716 s
COc1nccnc1NC1CCN(C(=O)c2ccco2)CC1	690 s
CCn1cc(S(=O)(=O)N2CCC3(CC2)CC(OCc2ccccc2)CCO3)cn1 (stereo unspecified)	897 s
COc1ccc2[nH]cc(CCNC(=O)C3CCCCC3)c2c1	804 s
CN(C)CCNC(=O)C1CCc2sc(C(=O)N3CCOCC3)cc2C1 (stereo unspecified)	551 s
COc1cc(-c2nc3ncccn3c2Nc2cccc(C(F)(F)F)c2)ccc1O	700 s
COC(=O)c1ccc2c(=O)n(-c3cccc(OC)c3)c(N3CCOCC3)nc2c1	887 s
O=C(NC1CCN(c2cc(-c3ccc(Cl)cc3)[nH]n2)C1)c1ccc2cc[nH]c2c1 (stereo unspecified)	762 s
O=C(Nc1ccc2c(c1)CN(C(=O)c1cccs1)CC2)c1cnccn1	708 s
COc1cc(C2C(C(=O)N3CCOCC3)=C(C)NC3=C2C(=O)CCC3)cc(Br)c1O (stereo unspecified)	607 s
CCOC(=O)c1sc(NC(=O)C2CCCCN2S(=O)(=O)c2cccs2)cc1C (stereo unspecified)	962 s
O=C(O)/C(=C/c1ccccc1)c1ccccc1	923 s
O=C(C1=CN(c2ccc(F)cc2)c2cc(F)ccc2S1(=O)=O)N1CCOCC1	769 s

Next, values leading:

RP-LC retention time	Structure (SMILES)
699 s	CCNc1cc(N2CCCC(CCC(=O)Nc3ccc(OCC)cc3)C2)ncn1 (stereo unspecified)
912 s	CC1CCN(c2ccc(-c3noc(CN(C)Cc4ccccc4)n3)cn2)CC1
635 s	CC(C)Cn1c(=O)c(C(=O)NCCc2cccnc2)nc2cccnc21
681 s	CCCn1cnc2c(Sc3c([N+](=O)[O-])ncn3C)nc(N)nc21
814 s	CCCN(CCC)c1nc(-c2ccccc2F)nc2ccccc12
997 s	CCOc1cc(C(=O)N2CCN(c3cc(-c4ccc(Cl)cc4)[nH]n3)CC2)cc(OCC)c1OCC
605 s	CC(C)NC(=O)C1CCN(c2nc3ccc(-c4cccnc4)nc3s2)CC1
1070 s	COC(=O)c1ccc(OC)c(Cn2cnc3c(-c4ccc(C)cc4)csc3c2=O)c1
731 s	COC(=O)c1ncn2c1C(=O)N(c1cc(C)ccc1C)C(C)(C(=O)NCc1ccccc1)C2 (stereo unspecified)
695 s	O=C(Cc1nnc(-c2ccc3ncccc3c2)o1)NCc1ccccc1F
563 s	Cc1noc(C)c1CN1CCN(C(=O)c2cc(F)cc(F)c2)CC1
697 s	CCC(=O)N1CCc2cc(C(=O)N3CCN(c4ncccn4)CC3)ccc21
641 s	COc1ccc(CCNC(=O)Cn2nc3n(c2=O)CCCCC3)cc1OC
1140 s	CCOc1ccc(CNC(=O)c2nnn(Cc3nc(-c4cccc(C)c4)oc3C)c2C)cc1
940 s	CCCc1noc(-c2ccc3nnc(CC(=O)Nc4ccc(C)cc4F)n3c2)n1
1150 s	CCc1cc(C(=O)Nc2cccc(C)c2C)nc2ccnn12
1190 s	Cn1nccc1-c1cccc(-c2noc(-c3cc(F)ccc3Cl)n2)c1
579 s	COc1ccc(CC(=O)NCC2CCC(c3nc4ccccc4n3C)CC2)cc1 (stereo unspecified)
950 s	Cc1ccc(NC(=O)CSc2nccc(N3CCN(c4cc(C)ccc4C)CC3)n2)cc1
876 s	COc1ccc(-c2nc(-c3ccc4c(c3)nc(C)c(=O)n4C)no2)cc1OC
598 s	Cc1cc(NC(=O)c2ccc(=O)n(C)n2)no1
1080 s	COc1cccc(-c2ccc(=O)n(CCc3nc(-c4cccc(Br)c4)no3)n2)c1
1010 s	CCn1c(C(=O)NCc2ccccc2OC)cc2sccc21
1170 s	CCOc1ccccc1NC(=O)N1CCc2nc(-c3ccc(Cl)cc3)ncc2C1
1300 s	Cc1sc2ncnc(N3CCCC(C)C3)c2c1C(=O)Nc1cccc(F)c1C (stereo unspecified)

RP-LC retention time	Structure (SMILES)
892 s	CCc1nnc(-c2ccc3ccn(CC(=O)N4CCN(c5ccccc5F)CC4)c3c2)o1
656 s	CCN(CC)CCNS(=O)(=O)c1cc(-c2nc(C)c(C)s2)sc1C
824 s	CCCCOc1ccc(NC(=O)c2cc(=O)c3cc(Cl)c(C)cc3o2)c2cccnc12
874 s	CCc1ccc(N2C(=O)CN(S(C)(=O)=O)CC2(C)C(=O)NCc2ccc(Cl)cc2)cc1 (stereo unspecified)
615 s	COCc1ncc(C)n1CCNC(=O)Nc1ccsc1C(=O)OC
895 s	CCn1c(=O)c(N2CCN(C(=O)Nc3ccc(F)cc3F)CC2)nc2ccccc21
651 s	O=C(Cn1cc(-c2ccccc2)c2ncnc(N3CCOCC3)c21)N1CCCC1
634 s	CCN(Cc1ccc(Cl)cc1)Cc1cc(=O)n2ccc(C)cc2n1
588 s	CCCNc1cc(N2CCC(CCC(=O)NC3CC3)CC2)ncn1
804 s	O=C(Cn1nc2c(Oc3ccc(Cl)cc3)nccn2c1=O)NCc1ccco1
708 s	COC(=O)c1ncn2c1C(=O)N(c1ccc(F)cc1C)C(C)(C(=O)NCc1ccccc1)C2 (stereo unspecified)
663 s	C=CCNC(=O)Cc1c(C)n(C)c2nc(-c3ccccc3)nn2c1=O
924 s	CC(C)c1cc(C(F)(F)F)nc(NNc2nc(C(C)C)cc(C(F)(F)F)n2)n1
865 s	CCCNC(=O)CSc1ccc(-n2nc3c(c2C)CCC3)nn1
730 s	Cc1ccc2c(c1)N(C(=O)Cn1nc3c4ccccc4ncn3c1=O)CCO2
676 s	CCN1CCCn2cc(S(=O)(=O)NCc3ccc(C)o3)cc2C1=O
762 s	O=C(NCCn1c(=O)n(Cc2ccc(F)cc2)c2cccnc21)c1ccsc1
592 s	COc1ccc(CSc2nccc3c2ccn3CC(=O)N2CCN(c3ccccn3)CC2)cc1
672 s	CC(C)=C1SC(=O)N(CC(=O)Nc2ccc(S(N)(=O)=O)cc2)C1=O
621 s	Oc1ccc(-c2csc(Nc3ccccn3)n2)cc1O
669 s	CCCN1C(=O)C2CCC(=O)N2c2ccc(C(=O)NC(C)C)cc21 (stereo unspecified)
959 s	CCN1C(=O)C(C)(C(=O)Nc2cc(OC)ccc2OC)Oc2cccnc21 (stereo unspecified)
564 s	CCOC(=O)C1=C(C)NC(C)=C(C(=O)OCC)C1c1ccncc1
744 s	CCc1nc(-c2cc(S(=O)(=O)N3CCC(C(=O)NC4CC4)CC3)c(C)s2)no1
859 s	O=C(COc1ccccc1)Nc1nnc(SCC(=O)N2CCCc3ccccc32)s1
